{
  "source": "ChEMBL document CHEMBL4265869",
  "about": "“Prodrugs of triterpenoids and their derivatives” (Eur J Med Chem, 2017)",
  "key": {"A549 [1]": {"test_system": "A549", "test": "Cytotoxicity in human A549 cells", "assay_type": "functional, cell-based"}, "HT-29": {"test_system": "HT-29", "test": "Cytotoxicity in human HT-29 cells by photometric SRB assay", "assay_type": "functional, cell-based"}, "SW-1736": {"test_system": "SW-1736", "test": "Cytotoxicity in human SW1736 cells by photometric SRB assay", "assay_type": "functional, cell-based"}, "FaDu": {"test_system": "FaDu", "test": "Cytotoxicity in human FADU cells by photometric SRB assay", "assay_type": "functional, cell-based"}, "A549 [2]": {"test_system": "A549", "test": "Cytotoxicity in human A549 cells by photometric SRB assay", "assay_type": "functional, cell-based"}, "MCF7": {"test_system": "MCF7", "test": "Cytotoxicity in human MCF7 cells by photometric SRB assay", "assay_type": "functional, cell-based"}, "518A2": {"test_system": "518A2", "test": "Cytotoxicity in human 518A2 cells by photometric SRB assay", "assay_type": "functional, cell-based"}, "[3]": {"test": "Selectivity index, ratio of EC50 for mouse NIH/3T3 cells to EC50 for human A549 cells", "assay_type": "toxicity", "conditions": "NIH/3T3 cells and A549 cells, read-out: Ratio EC50"}},
  "data": [
    {"compound": "C/C=C(\\C)C(=O)O[C@@H]1CC(C)(C)C[C@H]2C3=CC[C@@H]4[C@@]5(C)CC[C@H](OC(=O)Cc6ccccc6Cc6c(Cl)cccc6Cl)C(C)(C)[C@@H]5CC[C@@]4(C)[C@]3(C)CCC12C(=O)O", "note": "(single isomer, unassigned)", "values": [
      {"measurement": "IC50", "setting": "A549 [1]", "value": 0.15, "unit": "µM"}
    ]},
    {"compound": "CC(C)=CC(=O)O[C@@H]1CC(C)(C)C[C@H]2C3=CC[C@@H]4[C@@]5(C)CC[C@H](OC(=O)Cc6ccccc6Cc6c(Cl)cccc6Cl)C(C)(C)[C@@H]5CC[C@@]4(C)[C@]3(C)CCC12C(=O)O", "note": "(single isomer, unassigned)", "values": [
      {"measurement": "IC50", "setting": "A549 [1]", "value": 0.42, "unit": "µM"}
    ]},
    {"compound": "COC(=O)[C@]12CCC(C)(C)C[C@H]1C1=CC[C@@H]3[C@@]4(C)C[C@@H](O)[C@H](OS(N)(=O)=O)C(C)(C)[C@@H]4CC[C@@]3(C)[C@]1(C)CC2", "values": [
      {"measurement": "EC50", "setting": "HT-29", "value": "2.2 to 3.5", "unit": "µM"},
      {"measurement": "EC50", "setting": "SW-1736", "value": "2.2 to 3.5", "unit": "µM"},
      {"measurement": "EC50", "setting": "FaDu", "value": "2.2 to 3.5", "unit": "µM"},
      {"measurement": "EC50", "setting": "A549 [2]", "value": "2.2 to 3.5", "unit": "µM"},
      {"measurement": "EC50", "setting": "MCF7", "value": "2.2 to 3.5", "unit": "µM"},
      {"measurement": "EC50", "setting": "518A2", "value": "2.2 to 3.5", "unit": "µM"}
    ]},
    {"compound": "COC(=O)[C@]12CCC(C)(C)C[C@H]1C1=CC(=O)[C@@H]3[C@@]4(C)CC[C@H](OS(N)(=O)=O)C(C)(C)[C@@H]4CC[C@@]3(C)[C@]1(C)CC2", "values": [
      {"measurement": "selectivity ratio", "setting": "[3]", "value": 2.7}
    ]},
    {"compound": "C/C=C(\\C)C(=O)O[C@@H]1CC(C)(C)C[C@H]2C3=CC[C@@H]4[C@@]5(C)CC[C@H](Oc6ccccc6C(C)=O)C(C)(C)[C@@H]5CC[C@@]4(C)[C@]3(C)CCC12C(=O)O", "note": "(single isomer, unassigned)", "values": [
      {"measurement": "IC50", "setting": "A549 [1]", "value": 0.77, "unit": "µM"}
    ]}
  ]
}
